Experimental data taken from US7138361B2, “Herbicidal heterocycles” (E. I. du Pont de Nemours and Company, priority 2000, dated 2006).

Key:
Assay type in all cases: in vivo
[1] = system: crabgrass (Digitaria sanguinalis); experiment: Test C preemergence
Summary of the method: (§1)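 Pre- and postemergence treatments used a non-phytotoxic solvent/surfactant formulation; post-treated plants measured 2 to 18 cm. Greenhouse hold 12–14 d; % control estimated visually relative to controls.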

[2] = system: lambsquarters (Chenopodium album); experiment: Test C preemergence
Summary of the method: as §1

[3] = system: soybean (Glycine max); experiment: Test C preemergence
Summary of the method: as §1

[4] = system: pigweed (Amaranthus retroflexus); experiment: Test C preemergence
Summary of the method: as §1

[5] = system: Nightshade; experiment: Test C preemergence
[6] = system: woolly cupgrass (Eriochloa villosa); experiment: Test C preemergence
Summary of the method: as §1

[7] = system: goosegrass (Eleusine indica); experiment: Test C preemergence
Summary of the method: as §1

[8] = system: cocklebur (Xanthium strumarium); experiment: Test C preemergence
Summary of the method: as §1

[9] = system: Surinam grass (Brachiaria decumbens); experiment: Test C preemergence
Summary of the method: as §1

[10] = system: rice (Oryza saliva); experiment: Test B preemergence
Summary of the method: (§2)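 Post-treatment, species sat 13–15 days under greenhouse conditions before visual scoring against controls, 0 (no effect) through 100 (complete control). Application preemergence to sown seeds or postemergence at 1- to 4-leaf stage, using a non-phytotoxic solvent/surfactant formulation.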

[11] = system: crabgrass (Digitaria sanguinalis); experiment: Test B preemergence
Summary of the method: as §2

[12] = system: barnyardgrass (Echinochloa crus-galli); experiment: Test B preemergence
Summary of the method: as §2

[13] = system: giant foxtail (Setaria faberii); experiment: Test B preemergence
Summary of the method: as §2

[14] = system: pigweed (Amaranthus retroflexus); experiment: Test B preemergence
Summary of the method: as §2

[15] = system: morning glory (Ipomoea hederacea); experiment: Test B preemergence
Summary of the method: as §2

[16] = system: corn (Zea mays); experiment: Test B preemergence
Summary of the method: as §2

[17] = system: velvetleaf (Abutilon theophrasti); experiment: Test B preemergence
Summary of the method: as §2

[18] = system: cocklebur (Xanthium strumarium); experiment: Test B preemergence; conditions: scale 0 to 100, 0 no effect, 100 complete control
Summary of the method: as §2

[19] = system: Surinam grass (Brachiaria decumbens); experiment: Test B preemergence
Summary of the method: as §2

[20] = system: lambsquarters (Chenopodium album); experiment: Test B preemergence
Summary of the method: as §2

[21] = Rate 62 g/ha, scale 0 to 100, 0 no effect, 100 complete control
[22] = preemergence, Rate 31 g/ha, scale 0 to 100
[23] = preemergence, Rate 125 g/ha, scale 0 to 100, 0 no effect, 100 complete control
[24] = Preemergence, Rate 500 g/ha, scale 0 to 100, 0 no effect, 100 complete control
[25] = preemergence, Rate 62 g/ha, scale of 0 to 100 where 0 is no effect and 100 is complete control, 13 to 15 days
[26] = preemergence, Rate 250 g/ha, scale 0 to 100, 0 no effect, 100 complete control

CCC(CC)c1ccn(C2SCN(c3cccc(C(F)(F)F)c3)C2=O)n1 (centres unmarked) [Compound 21]
100: Plant response rating, Crabgrass [1, 23] | Plant response rating, Lambsquarters [2, 21] | Plant response rating, Lambsquarters [2, 23] | Plant response rating, Pigweed [4, 23] | Plant response rating, Nightshade ([5]; Rate 125 g/ha, scale 0 to 100, 0 no effect, 100 complete control) | Plant response rating, Goosegrass [7, 23] | Plant response rating, Crabgrass [11, 24] | Plant response rating, Crabgrass [11, 23] | Plant response rating, Barnyardgrass [12, 24] | Plant response rating, Foxtail, Giant [13, 24] | Plant response rating, Morningglory [15, 24]
90: Plant response rating, Crabgrass [1, 21] | Plant response rating, Crabgrass [1, 22] | Plant response rating, Lambsquarters [2, 22] | Plant response rating, Nightshade [5, 21] | Plant response rating, Pigweed [14, 24] | Plant response rating, Morningglory [15, 23]
30: Plant response rating, Soybean [3, 22] | Plant response rating, Pigweed [4, 22] | Plant response rating, Surinam grass [9, 23]
40: Plant response rating, Soybean [3, 21] | Plant response rating, Cupgrass, Woolly [6, 22]
70: Plant response rating, Foxtail, Giant [13, 23]
60: Plant response rating, Barnyardgrass [12, 23]
0: Plant response rating, Cocklebur [8, 21] | Plant response rating, Cocklebur [8, 22] | Plant response rating, Cocklebur [8, 23] | Plant response rating, Surinam grass [9, 21] | Plant response rating, Surinam grass [9, 22] | Plant response rating, Rice [10, 24] | Plant response rating, Rice [10, 23] | Plant response rating, Pigweed [14, 23] | Plant response rating, Corn [16, 24] | Plant response rating, Corn [16, 23] | Plant response rating, Velvetleaf [17, 24] | Plant response rating, Velvetleaf [17, 23] | Plant response rating, Cocklebur ([18]; Preemergence, Rate 500 g/ha)
80: Plant response rating, Soybean [3, 23] | Plant response rating, Pigweed [4, 21] | Plant response rating, Nightshade ([5]; Rate 31 g/ha, scale 0 to 100) | Plant response rating, Cupgrass, Woolly [6, 21] | Plant response rating, Cupgrass, Woolly [6, 23] | Plant response rating, Goosegrass [7, 21] | Plant response rating, Goosegrass [7, 22]
20: Plant response rating, Surinam grass [19, 24] | Plant response rating, Surinam grass [19, 23]

CC1(C)CCc2cn(C3CCN(c4cccc(C(F)(F)F)c4)C3=O)nc21 (centres unmarked) [Compound 10]
30: Plant response rating, Corn [16, 26] | Plant response rating, Surinam grass [19, 26]
80: Plant response rating, Foxtail, Giant [13, 25]
100: Plant response rating, Crabgrass [11, 25] | Plant response rating, Crabgrass [11, 26] | Plant response rating, Lambsquarters [20, 25] | Plant response rating, Lambsquarters [20, 26] | Plant response rating, Barnyardgrass [12, 26] | Plant response rating, Foxtail, Giant [13, 26] | Plant response rating, Pigweed [14, 26]
20: Plant response rating, Surinam grass [19, 25]
90: Plant response rating, Pigweed [14, 25]
0: Plant response rating, Rice [10, 24] | Plant response rating, Rice [10, 25] | Plant response rating, Rice [10, 23] | Plant response rating, Rice [10, 26] | Plant response rating, Crabgrass [11, 24] | Plant response rating, Crabgrass [11, 23] | Plant response rating, Lambsquarters [20, 24] | Plant response rating, Lambsquarters [20, 23] | Plant response rating, Barnyardgrass [12, 24] | Plant response rating, Barnyardgrass [12, 25] | Plant response rating, Barnyardgrass [12, 23] | Plant response rating, Foxtail, Giant [13, 24] | Plant response rating, Foxtail, Giant [13, 23] | Plant response rating, Pigweed [14, 24] | Plant response rating, Pigweed [14, 23] | Plant response rating, Morningglory [15, 24] | Plant response rating, Morningglory [15, 25] | Plant response rating, Morningglory [15, 23] | Plant response rating, Morningglory [15, 26] | Plant response rating, Corn [16, 24] | Plant response rating, Corn [16, 25] | Plant response rating, Corn [16, 23] | Plant response rating, Velvetleaf [17, 24] | Plant response rating, Velvetleaf [17, 25] | Plant response rating, Velvetleaf [17, 23] | Plant response rating, Velvetleaf [17, 26] | Plant response rating, Cocklebur ([18]; Preemergence, Rate 500 g/ha) | Plant response rating, Cocklebur ([18]; preemergence, Rate 125 g/ha) | Plant response rating, Cocklebur ([18]; preemergence, Rate 250 g/ha) | Plant response rating, Surinam grass [19, 24] | Plant response rating, Surinam grass [19, 23]
